Data published in patent publication US5442043A, “Peptide conjugate” (Takeda Chemical Industries, Ltd., priority 1992, dated 1995).
Bridge positions count the residues as written; N and C are the ends. Peptide text beside a SMILES is read from it. I, II: the chains in the order shown.

Experiments:
[1] = biological target: T1, insulin receptor on the capillary endothelial cell (Bos taurus, UniProt F1MV64); experiment: Competitive inhibition of 125I-insulin binding on bovine brain microvessel endothelial cell monolayers
T1 construct: endogenous in cells; host or cells: primary bovine brain microvessel endothelial cell monolayers
T1 sequence (F1MV64 28-1382): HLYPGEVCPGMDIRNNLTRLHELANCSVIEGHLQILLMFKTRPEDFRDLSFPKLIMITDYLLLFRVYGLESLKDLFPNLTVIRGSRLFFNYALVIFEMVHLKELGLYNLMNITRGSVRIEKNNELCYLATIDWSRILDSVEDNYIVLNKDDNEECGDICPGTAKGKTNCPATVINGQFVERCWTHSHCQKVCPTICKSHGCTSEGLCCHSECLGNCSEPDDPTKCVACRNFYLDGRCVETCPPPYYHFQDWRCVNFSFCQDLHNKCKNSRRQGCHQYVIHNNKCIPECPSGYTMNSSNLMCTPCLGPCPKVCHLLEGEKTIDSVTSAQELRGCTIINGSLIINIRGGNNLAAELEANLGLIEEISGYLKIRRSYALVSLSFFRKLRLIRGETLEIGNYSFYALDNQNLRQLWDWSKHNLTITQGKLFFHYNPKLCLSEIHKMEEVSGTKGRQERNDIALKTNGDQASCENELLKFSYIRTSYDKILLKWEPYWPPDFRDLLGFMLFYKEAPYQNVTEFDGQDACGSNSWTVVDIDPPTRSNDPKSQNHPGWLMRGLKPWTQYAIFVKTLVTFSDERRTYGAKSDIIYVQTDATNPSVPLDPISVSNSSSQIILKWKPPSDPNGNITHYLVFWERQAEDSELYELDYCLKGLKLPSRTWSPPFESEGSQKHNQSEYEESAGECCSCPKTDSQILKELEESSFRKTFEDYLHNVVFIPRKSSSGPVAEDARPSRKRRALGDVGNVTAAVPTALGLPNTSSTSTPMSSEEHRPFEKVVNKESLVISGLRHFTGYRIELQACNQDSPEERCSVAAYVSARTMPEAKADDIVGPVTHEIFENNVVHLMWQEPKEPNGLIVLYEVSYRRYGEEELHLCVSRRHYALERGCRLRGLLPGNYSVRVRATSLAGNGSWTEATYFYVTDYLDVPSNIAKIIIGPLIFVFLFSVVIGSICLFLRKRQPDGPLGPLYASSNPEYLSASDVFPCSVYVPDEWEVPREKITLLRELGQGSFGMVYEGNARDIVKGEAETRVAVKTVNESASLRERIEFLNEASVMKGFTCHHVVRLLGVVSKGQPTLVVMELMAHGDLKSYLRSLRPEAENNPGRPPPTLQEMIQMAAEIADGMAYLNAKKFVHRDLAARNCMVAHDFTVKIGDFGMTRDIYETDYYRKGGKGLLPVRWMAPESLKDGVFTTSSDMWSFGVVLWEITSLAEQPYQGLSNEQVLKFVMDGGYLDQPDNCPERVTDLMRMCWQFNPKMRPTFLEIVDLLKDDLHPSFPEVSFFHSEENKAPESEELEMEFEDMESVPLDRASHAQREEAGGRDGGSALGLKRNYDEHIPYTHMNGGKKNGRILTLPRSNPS
Method: In accordance with the description by Ronald T. Borchart et al. of the United States in "Characteristics of the Large Neutral Amino Acid Transport System of Bovine Brain Microvessel Endothelial Cell Monolayers" [Journal of Neurochemistry, Vol. 47, pp. 484-488 (1986)], bovine brain microvessel endothelial cells were separated in a monolayer, whose affinity for the receptor on the endothelial cell was determined.

[2] = compared with natural insulin; cited from earlier work

| Molecule | 125I-insulin binding ratio (%) after addition of non-labeled compound ([1]; addition concentration 1.0 × 10 μM) [%] | 125I-insulin binding ratio (%) after addition of non-labeled compound ([1]; addition concentration 1.0 × 10^2 μM (first line so printed)) [%] | 125I-insulin binding ratio (%) after addition of non-labeled compound ([1]; addition concentration 1.0 × 10^2 μM (second line so printed)) [%] | Affinity for the insulin receptor on the capillary endothelial cell (in words) ([1]; fragments obtained by solid phase synthesis, Examples 4 and 5) | Affinity for the receptor on the cerebral capillary endothelial cell (in words) ([1]; fragments obtained by trypsin digestion, Examples 1 and 2) | Insulin activity (in words) [2] |
| --- | --- | --- | --- | --- | --- | --- |
| CC[C@H](C)[C@H](NC(=O)CN)C(=O)N[C@H](C(=O)N[C@@H](CCC(=O)O)C(=O)N[C@@H](CCC(N)=O)C(=O)N[C@H]1CSSC[C@@H](C(=O)N[C@@H](CO)C(=O)N[C@@H](CC(C)C)C(=O)N[C@@H](Cc2ccc(O)cc2)C(=O)O)NC(=O)[C@H]([C@@H](C)CC)NC(=O)[C@H](CO)NC(=O)[C@H]([C@@H](C)O)NC(=O)[C@H](CSSC[C@H](NC(=O)[C@H](CC(C)C)NC(=O)[C@H](Cc2c[nH]cn2)NC(=O)[C@H](CCC(N)=O)NC(=O)[C@H](CC(N)=O)NC(=O)[C@@H](NC(=O)[C@@H](N)Cc2ccccc2)C(C)C)C(=O)NCC(=O)N[C@@H](CO)C(=O)N[C@@H](Cc2c[nH]cn2)C(=O)N[C@@H](CC(C)C)C(=O)N[C@H](C(=O)N[C@@H](CCC(=O)O)C(=O)N[C@@H](C)C(=O)N[C@@H](CC(C)C)C(=O)N[C@@H](Cc2ccc(O)cc2)C(=O)O)C(C)C)NC1=O)C(C)C [F001] (I: H-FVNQHLCGSHLVEALY-OH / II: H-GIVEQCCTSICSLY-OH; disulfide I:7-II:7, II:6-II:11) | 93.2 ± 0.4 | 61.6 ± 1.2 | 78.5 ± 3.8 | same affinity as insuline frogments obtained in Example 1 and 2 | showed affinity |  |
| (B25-30) pentapeptide deficient-[Phe^B25 -α-carboxyamide]insulin |  |  |  |  |  | acts as potently as natural insulin |
